Assays:
[1] = cited from earlier work
[2] = cited from earlier work; remark: listed apart in the source
[3] = four 5 gram per day; 30 second bouts of maximal isokinetic cycling; cited from earlier work
[4] = 20 grams a day for 5 days; five of the eight subjects; cited from earlier work
[5] = in vivo; cited from earlier work
[6] = TriCreatine Orotate method of use, 4 weeks post-workout oral supplementation; assay type: in vivo, human; details: weight trained person, 5 grams orally post workout, end of 4 week period
Description: In this example a experienced weight trained person orally consumes 5 grams of tricreatine orotate post workout for 4 weeks with beverage. Glucose or any insulin potentiating compound may added for even greater results. In this instance the tricreatine orotate is incorporated into free powder mixture of flavoring agents and D-glucose, which is then combined with water. Once in the plasma tricreatine orotate then exerts a synergistic lean tissue promoting effect due to the anabolic actions of creatine and orotic acid. The creatine enhances phophocreatine resynthesis and attracts water to intercellular component of the muscle cell, which in turn activates protein synthesis while the orotic acid promotes uridine phosphates and glycogen synthesis. The previously mentioned physiological functions lead to increases in lean body mass, strength, endurance, recovery and loss of fat tissue. At the end of the 4 week period the individual reported a 6 pound weight gain, a 20 pound increase in […] 1 repetition maximum bench press, and a 5 repetition increase in […] initial 70 percent maximum bench press. These increases contribute to the regulation of athletic function and thus lead to enhanced physical performance.

CN(CC(=O)O)C(=N)N.O [creatine monohydrate]
total creatine content of the quadriceps ([1]; 5 grams four to six times a day for 2 or more days): significant increase
creatine uptake ([1]; first two days of supplementation, six 5 gram doses): 32%
creatine taken up measured as phosphocreatine (PCr) ([1]; in vivo): ≥ 20%
rise in plasma creatine concentration ([2]; 1 gram dose): only a modest rise
time of mean peak plasma creatine ([2]; 5 gram dose): 1 h

CN(CC(=O)O)C(=N)N [creatine]
peak power output and mean power output [3]: significantly increased
muscle total creatine concentration and phosphocreatine resynthesis [4]: substantially increased

O=C(O)c1cc(=O)[nH]c(=O)[nH]1 [orotic acid, 1,2,3,6-Tetrahydro-2,6-dioxo-4-pyrimidecarboxylic acid]
growth and functional maturation of animals [5]: significant acceleration

Tricreatine orotate
increase in 1 repetition maximum bench press [6]: 20 pound
increase in initial 70 percent maximum bench press [6]: 5 repetition
weight gain [6]: 6 pound
